Data as given in the supplement of paper PMC8882468.

What was measured:
Assay in all cases: CTG-3D luminescence at 96 h relative to day-0 seeding control (ratio to day 0); higher = more growth / less cytotoxicity; PDxO 3D drug screen (set 2), 96 h, CTG-3D normalised to day-0 seeding control.
HCI-005.E2 = tested on: HCI-005.E2 (organoid from a breast cancer xenograft with a HER2-positive history)
HCI-017.E2 = tested on: HCI-017.E2 (organoid from an ER-positive breast cancer xenograft)
HCI-019 = tested on: HCI-019 (organoid from a triple-negative breast cancer xenograft)
HCI-001 = tested on: HCI-001 (organoid from a triple-negative breast cancer xenograft)
HCI-015 = tested on: HCI-015 (organoid from a triple-negative breast cancer xenograft)
HCI-010 = tested on: HCI-010 (organoid from a breast cancer xenograft)

Cc1c(CN2CCN(C(=O)[C@H](C)O)CC2)sc2c(N3CCOCC3)nc(-c3cnc(N)nc3)nc12 [apitolisib]
CTG-3D luminescence at 96 h
Details	12.5 pM	0.00025 µM	0.005 µM	0.1 µM	1 µM	10 µM	100 µM	625 fM
HCI-005.E2	1.87	2.22	2.35	1.75	0.429	0.481	0.444	2.21
HCI-017.E2	2.28	2.54	2.21	1.43	0.397	0.399	0.223	2.43

CTG-3D luminescence at 96 h
Details	12.5 pM	0.00025 µM	0.005 µM	0.1 µM	1 µM	10 µM	100 µM	625 fM
HCI-001, days in culture: 365	2.58	2.24	2.1	1.76	0.879	0.659	0.623	1.4
HCI-001, days in culture: 397	1.85	1.88	1.62	1.89	0.725	0.643	0.29	1.38
HCI-001, days in culture: 401	1.46	1.75	1.41	1.57	0.609	0.676	0.517	1.65
HCI-010, days in culture: 79	1.94	1.83	1.96	1.68	0.503	0.107	0.0163	2.13
HCI-010, days in culture: 86	2.03	2.34	2.49	1.94	0.554	0.242	0.088	2.27
HCI-010, days in culture: 102	1.17	1.35	1.21	0.954	0.286	0.0291	0.0044	0.944
HCI-010, days in culture: 164	1.71	1.39	1.57	1.27	0.641	0.265	0.0363	1.33
HCI-015, days in culture: 333	2.19	1.99	1.89	1.33	0.434	0.445	0.394	1.94
HCI-015, days in culture: 355	2.9	4.1	1.01	2.04	0.803	0.711	0.182	1.38
HCI-015, days in culture: 369	2.06	1.76	2.05	1.61	0.917	0.622	0.691	1.69
HCI-017.E2, days in culture: 85	2.14	1.73	1.52	1.36	0.359	0.278	0.161	2.09
HCI-019, days in culture: 173	2.46	1.25	0.933	2.29	0.88	0.36	0.336	1.93
HCI-019, days in culture: 194	1.95	1.96	2.18	0.828	0.744	0.462	0.305	1.85
HCI-019, days in culture: 215	0.992	1.33	1.51	0.699	0.362	0.15	0.168	1.4

CS(=O)(=O)CCNCc1ccc(-c2ccc3ncnc(Nc4ccc(OCc5cccc(F)c5)c(Cl)c4)c3c2)o1 [lapatinib]
CTG-3D luminescence at 96 h
Details	12.5 pM	0.00025 µM	0.005 µM	0.1 µM	1 µM	10 µM	100 µM	625 fM
HCI-005.E2	1.84	2.04	2.54	2.55	2.58	0.551	0.00117	2.11
HCI-017.E2	2.11	2.75	2.4	2.37	1.95	0.905	0.00683	2.65

CTG-3D luminescence at 96 h
Details	12.5 pM	0.00025 µM	0.005 µM	0.1 µM	1 µM	10 µM	100 µM	625 fM
HCI-001, days in culture: 365	2.34	2.26	2.24	2.56	1.9	1.3	0.109	1.46
HCI-001, days in culture: 397	1.64	2.11	2.14	1.37	1.64	1.63	0.127	1.29
HCI-001, days in culture: 401	1.46	1.83	1.73	1.59	1.25	1.44	0.0402	1.52
HCI-010, days in culture: 79	1.89	1.81	2.03	2.16	2.02	0.69	-0.00188	2.06
HCI-010, days in culture: 86	2.21	2.38	2.53	2.49	2.33	0.631	0.0027	2.48
HCI-010, days in culture: 102	1.1	1.16	1.11	1.32	1.48	0.154	8.25e-05	1.09
HCI-010, days in culture: 164	1.78	1.5	1.5	1.46	1.78	0.353	0.000987	1.63
HCI-015, days in culture: 333	1.35	1.46	1.34	1.08	0.661	0.251	0.00814	2.63
HCI-015, days in culture: 355	3.61	3.24	1.08	1.64	1.45	0.567	0.0071	2.45
HCI-015, days in culture: 369	2.34	1.5	2.2	1.6	2.32	0.511	0.0242	1.79
HCI-017.E2, days in culture: 85	2.34	1.93	1.68	2.32	1.61	0.581	0.0189	2.45
HCI-019, days in culture: 173	1.7	2.33	1.14	2.61	1.9	0.415	0.078	1.93
HCI-019, days in culture: 194	1.47	2.84	1.45	2.84	1.7	0.531	0.0607	2.78
HCI-019, days in culture: 215	1.96	2.03	1.85	1.67	1.66	0.323	0.00321	2.07
